Measured values reported in patent US6060472A, “Thiadiazole compounds useful as inhibitors of H^+ /K^+ atpase” (Apotex Inc., priority 1998, dated 2000).

Tests used:
[1] = test system: isolated murine gastric glands of mouse (acid secretion); assay: In vitro inhibition of gastric acid secretion (14C-aminopyrine accumulation in isolated mouse gastric glands); type: cell-based; details: 1 h, 60 min at 37 °C, secretagogue stimulated
Experimental: In Vitro Inhibition of Gastric Acid Secretion by Compounds of Formula I
Acid secretion is measured indirectly by the accumulation of the weak base ^14 C-aminopyrine in the isolated murine gastric glands of mouse. The assay is performed in polypropylene eppendorf tubes containing 0.5 mL of resuspended mouse gastric glands. In addition, tubes contain the tested drug, acid secretagogues (e.g. histamine, di-butyryl cyclic AMP (cAMP), carbachol) and ^14 C-aminopyrine. Tubes are incubated for 60 min. at 37 ° C. and continuously rotated. The reaction is stopped by centrifugation of the gland suspension for five min. at 1500 g. Supernatant is aspirated leaving the pellet containing intact gastric glands. The pellet is washed extensively and digested overnight in 1 mL of Protosol (Amersham). After neutralisation with acetic acid and addition of scintillation fluid, the radioactivity is counted in a beta-counter (Beckman). The amount of radioactivity trapped in the pellet corresponds directly with the amount of acid being secreted. Each experimental point is done in triplicate. In each experiment, energy independent consumption was estimated with 0.1 mM of dinitrophenol and basal acid secretion in the absence of acid stimulants. These values were then subtracted from corresponding results in order to calculate basal or secretagogue stimulated acid secretion.
Mouse glands respond to a variety of conventional secretagogues and post-receptor mediators but not to gastrin. The maximum stimulation of acid secretion is achieved with 1 mM cAMP, 0.1 mM histamine, 0.1 mM IBMX, 10 μM carbachol, 10 μM forskolin, 10 μM calcium ionophore A23187, 1 μM thapsigarin. Each experiment is repeated a number of times and all results are expressed as a % of the maximum stimulation. For the purpose of comparing the relative potency of the compounds, each experiment contains positive controls using omeprazole for post-receptor/cAMP mediated responses and ranitidine which inhibits histamine mediated acid secretion.
Using the above procedure, the IC50 value for these compounds were as follows: […]

gastric acid secretion = assay: Gastric secretion study in rat (pylorus ligation); type: in vivo, Male Sprague-Dawley rats; details: oral gavage, pylorus-ligated rat, 2 hours post ligation; for Average total gastric contents: Control 2.5; for Average total acid output: Control 298
Experimental: Gastric Secretion Study in Rat The objective of the study was to establish the antisecretory effects of two experimental compounds compared to Omeprazole. Male Sprague-Dawley rats (110 to 140 g in weight) were ordered from Ace Animals, Inc., Boyertown Pa. and were randomized into […] groups. The Control animals were administered carboxymethylcellulose (CMC) as the treated groups were administered the test materials in a suspension of CMC. Two groups were allotted to a reference standard of Omeprazole and were administered doses of 2 and 8 mg/kg. The other 4 dose groups were allotted to the 2 experimental compounds at doses of 8 and 32 mg/kg. All test materials were administered by oral gavage as this is the intended route in humans. Each animal was dosed using a stainless steel ball-tipped gavage needle attached to an appropriate size syringe. All doses administered were based on fasted body weights taken prior to the dosing. Two hours post drug administration, the animals were anesthetized using a short acting general anesthetic (Methoxital Sodium). The midline incision was made and the gastric duodenal area exposed. A ligature of thread was placed around the pylorus and tied tightly. This ligature around the pylorus stimulates the production of gastric acid. The incision was closed post ligation and the animal was replaced in its cage without access of food or water. All rats were euthanized 2 hours post pylorus ligation using an overdose of sodium pentobarbital. The esophagus was ligated and the intact stomach was removed and opened along the great curvature. Gastric contents were collected in a plastic cup and transferred to a 15 ml conical tube. The contents were centrifuged for approximately 10 minutes. The supernatant was decanted and the volume was measured to the nearest tenth of a milliliter. 1 ml of the gastric contents were pipetted into 4 ml of distilled water and titrated with 0.01 N sodium hydroxide to a pH of 7.0. The acidity was measured by titration and the total acid output calculated.

IC50 [1] [µM]	Compound	Average total gastric contents (gastric acid secretion; 2 mg/kg) [mL]	Average total acid output (gastric acid secretion; 2 mg/kg) [µEq]	Average total gastric contents (gastric acid secretion; 8 mg/kg) [mL]	Average total acid output (gastric acid secretion; 8 mg/kg) [µEq]	Average total gastric contents (gastric acid secretion; 32 mg/kg) [mL]	Average total acid output (gastric acid secretion; 32 mg/kg) [µEq]
30	OC(c1ccccc1)c1nsc(N2CCN(c3ccccn3)CC2)n1 (stereo not drawn) [3-(1-hydroxy-1-phenylmethyl)-5-{4-[pyridin-2-yl]-piperazin-1-yl}-1,2,4-thiadiazole]	–	–	–	–	–	–
4	c1ccc(-c2nsc(N3CCN(c4ccccn4)CC3)n2)cc1 [3-phenyl-5-{4-[pyridin-2-yl]-piperazin-1-yl}-1,2,4-thiadiazole]	–	–	2.2	223	1.2	100
100	COc1nsc(N2CCN(c3ccccn3)CC2)n1 [3-methoxy-5-{4-[pyridin-2-yl]-piperazin-1-yl}-1,2,4-thiadiazole]	–	–	–	–	–	–

Further lines, the compound ahead of its results:

Compound	IC50 [1] [µM]	Average total gastric contents (gastric acid secretion; 2 mg/kg) [mL]	Average total acid output (gastric acid secretion; 2 mg/kg) [µEq]	Average total gastric contents (gastric acid secretion; 8 mg/kg) [mL]	Average total acid output (gastric acid secretion; 8 mg/kg) [µEq]	Average total gastric contents (gastric acid secretion; 32 mg/kg) [mL]	Average total acid output (gastric acid secretion; 32 mg/kg) [µEq]
O=C(c1ccccc1)c1nsc(N2CCN(c3ccccn3)CC2)n1 [3-benzoyl-5-{4-[pyridin-2-yl]-piperazin-1-yl}-1,2,4-thiadiazole]	6	–	–	–	–	–	–
O=C(c1ccccc1)c1nsc(N2CCN(C(c3ccccc3)c3ccc(Cl)cc3)CC2)n1 (stereo not drawn) [3-benzoyl-5-{4-[1-phenyl-1-(4-chlorophenyl)methyl]piperazin-1-yl}-1,2,4-thiadiazole]	50	–	–	–	–	–	–
COc1ccc2[nH]c([S+]([O-])Cc3ncc(C)c(OC)c3C)nc2c1 (stereo not drawn) [Omeprazole, reference compound]	–	2.2	296	1.9	164	–	–
O=C(c1cccc(Cl)c1)c1nsc(N2CCN(c3ccccn3)CC2)n1 [3-(3-chlorobenzoyl)-5-{4-[pyridin-2-yl]-piperazin-1-yl}-1,2,4-thiadiazole]	25	–	–	1.9	159	2.9	271
